According to US11596639B2, “Substituted indole Mcl-1 inhibitors” (Vanderbilt University, priority 2016, dated 2023):
Read-outs that look alike come from different tables or passages of the source.

Experiments:
[1] = target: Mcl-1 (Homo sapiens (Human), UniProt Q07820); test: TR-FRET binding assay, FITC-Bak peptide and MBP-tagged Mcl-1; conditions: read-out: Ki for Inhibition of Mcl-1 by TR-FRET assay
Experimental: Compounds are diluted in DMSO in a 16-point, semilog serial dilution scheme. […] The plate was mixed and incubated for 3 hours at room temperature. […] TR-FRET signal is plotted and IC50 and Ki values are calculated in the same manner as the fluorescence polarization anisotropy based competition assays.

[2] = system: H929 human cancer cell lines; test: Cellular viability / proliferation (Cell TiterGlo, 72 h); format: cell-based
How it was run: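 Plating is at 1,000 cells/well in 10% FBS medium; after 24 h, compound is added as a 2-fold series starting at 50 μM with under 1% DMSO.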

[3] = Homo sapiens, NCI-H929, 72 h, read-out: GI50 on cellular proliferation of H929 human cancer cell lines, H929 cells, 72 h, Cell TiterGlo, 10% FBS

Chain of Mcl-1 (Q07820 172-327): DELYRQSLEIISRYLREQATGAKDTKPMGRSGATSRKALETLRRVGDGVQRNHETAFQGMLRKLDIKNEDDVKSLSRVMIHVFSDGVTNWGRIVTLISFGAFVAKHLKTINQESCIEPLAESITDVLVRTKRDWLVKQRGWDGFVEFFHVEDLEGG

SMILES	Ki [1] [µM]	GI50 ([2]; H929 cells, 72 h, Cell TiterGlo, 10% FBS, read-out: GI50 on cellular proliferation of H929 human cancer cell lines) [µM]	GI50 [2, 3] [µM]	GI50 ([2]; read-out: GI50 on cellular proliferation of H929 human cancer cell lines, H929 cells, 72 h, Cell TiterGlo, 10% FBS) [µM]
Cc1cc(OCCCc2c3n(c4c(-c5c(C)nn(C)c5C)c(Cl)ccc24)[C@H](C)CN(c2cn(C[C@H]4CCC[N+]4(C)C)c4ccc(C(=O)O)cc24)C3=O)cc(C)c1Cl [Example 667, (R)-2-((5-carboxy-3-((R)-7-chloro-10-(3-(4-chloro-3,5-dimethylphenoxy)propyl)-4-methyl-1-oxo-6-(1,3,5-trimethyl-1H-pyrazol-4-yl)-3,4-dihydropyrazino[1,2-a]indol-2(1H)-yl)-1H-indol-1-yl)methyl)-1,1-dimethylpyrrolidin-1-ium]	< 0.0002	8.2	–	–
COc1cc(N2C[C@@H](C)n3c(c(CCCOc4cc(C)c(Cl)c(C)c4)c4ccc(Cl)c(-c5c(C)nn(C)c5C)c43)C2=O)c2c(c1)c(C(=O)O)cn2Cc1ccccn1 [Example 605, (R)-7-(7-chloro-10-(3-(4-chloro-3,5-dimethylphenoxy)propyl)-4-methyl-1-oxo-6-(1,3,5-trimethyl-1H-pyrazol-4-yl)-3,4-dihydropyrazino[1,2-a]indol-2(1H)-yl)-5-methoxy-1-(pyridin-2-ylmethyl)-1H-indole-3-carboxylic acid]	0.00045	–	0.49	–
COCCOc1cc(N2C[C@@H](C)n3c(c(CCCOc4cc(C)c(Cl)c(C)c4)c4ccc(Cl)c(-c5c(C)n[nH]c5C)c43)C2=O)c2c(c1)cc(C(=O)O)n2C [Example 716, (R)-7-(7-chloro-10-(3-(4-chloro-3,5-dimethylphenoxy)propyl)-6-(3,5-dimethyl-1H-pyrazol-4-yl)-4-methyl-1-oxo-3,4-dihydropyrazino[1,2-a]indol-2(1H)-yl)-5-(2-methoxyethoxy)-1-methyl-1H-indole-2-carboxylic acid]	< 0.0002	–	0.55	–
COCCn1cc(C(=O)O)c2cc(OC)cc(N3C[C@@H](C)n4c(c(CCCOc5cc(C)c(Cl)c(C)c5)c5ccc(Cl)c(-c6c(C)nn(C)c6C)c54)C3=O)c21 (single isomer, unassigned) [Example 673]	0.00031	–	–	0.23
COCCn1cc(N2C[C@@H](C)n3c(c(CCCOc4cc(C)c(Cl)c(C)c4)c4ccc(Cl)c(-c5c(C)nn(C)c5C)c43)C2=O)c2cc(-c3ncn(CC4CC4)n3)ccc21 [Example 589, (R)-7-Chloro-10-(3-(4-chloro-3,5-dimethylphenoxy)propyl)-2-(5-(1-(cyclopropylmethyl)-1H-1,2,4-triazol-3-yl)-1-(2-methoxyethyl)-1H-indol-3-yl)-4-methyl-6-(1,3,5-trimethyl-1H-pyrazol-4-yl)-3,4-dihydropyrazino[1,2-a]indol-1(2H)-one]	0.0017	–	1.1	–
Cc1cc(N2C[C@@H](C)n3c(c(CCCOc4cc(C)c(Cl)c(C)c4)c4ccc(Cl)c(-c5c(C)nn(C)c5C)c43)C2=O)c2c(c1)cc(C(=O)O)n2Cc1cc(N2CCNCC2)ccn1 [Example 553, (R)-7-(7-chloro-10-(3-(4-chloro-3,5-dimethylphenoxy)propyl)-4-methyl-1-oxo-6-(1,3,5-trimethyl-1H-pyrazol-4-yl)-3,4-dihydropyrazino[1,2-a]indol-2(1H)-yl)-5-methyl-1-((4-(piperazin-1-yl)pyridin-2-yl)methyl)-1H-indole-2-carboxylic acid]	< 0.0002	–	2.8	–
COCCn1cnc(-c2ccc3c(c2)c(N2C[C@@H](C)n4c(c(CCCOc5cc(C)c(Cl)c(C)c5)c5ccc(Cl)c(-c6c(C)nc(CN7CCN(C)C(=O)C7)nc6C)c54)C2=O)cn3CCN2CCOCC2)n1 [Example 722, (R)-7-Chloro-10-(3-(4-chloro-3,5-dimethylphenoxy)propyl)-6-(4,6-dimethyl-2-((4-methyl-3-oxopiperazin-1-yl)methyl)pyrimidin-5-yl)-2-(5-(1-(2-methoxyethyl)-1H-1,2,4-triazol-3-yl)-1-(2-morpholinoethyl)-1H-indol-3-yl)-4-methyl-3,4-dihydropyrazino[1,2-a]indol-1(2H)-one]	0.0031	–	< 0.2	–
Cc1cc(N2C[C@@H](C)n3c(c(CCCOc4cc(C)c(Cl)c(C)c4)c4ccc(Cl)c(-c5c(C)nn(C)c5C)c43)C2=O)c2c(c1)cc(C(=O)O)n2Cc1cc(N2CCN(C)CC2)ccn1 [Example 515, (R)-7-(7-Chloro-10-(3-(4-chloro-3,5-dimethylphenoxy)propyl)-4-methyl-1-oxo-6-(1,3,5-trimethyl-1H-pyrazol-4-yl)-3,4-dihydropyrazino[1,2-a]indol-2(1H)-yl)-5-methyl-1-((4-(4-methylpiperazin-1-yl)pyridin-2-yl)methyl)-1H-indole-2-carboxylic acid]	< 0.0002	–	0.61	–
Cc1ccc(Cn2cc(C(=O)O)c3cccc(N4C[C@@H](C)n5c(c(CCCOc6cc(C)c(Cl)c(C)c6)c6ccc(Cl)c(-c7c(C)nn(C)c7C)c65)C4=O)c32)nc1 (single isomer, unassigned) [Example 501]	0.00068	–	1.2	–
Cc1cc(N2C[C@@H](C)n3c(c(CCCOc4cc(C)c(Cl)c(C)c4)c4ccc(Cl)c(-c5c(C)nn(C)c5C)c43)C2=O)c2c(c1)cc1n2CCOC1=O [Example 685, (R)-6-(7-chloro-10-(3-(4-chloro-3,5-dimethylphenoxy)propyl)-4-methyl-1-oxo-6-(1,3,5-trimethyl-1H-pyrazol-4-yl)-3,4-dihydropyrazino[1,2-a]indol-2(1H)-yl)-8-methyl-3,4-dihydro-1H-[1,4]oxazino[4,3-a]indol-1-one]	0.0032	–	1.4	–
Cc1cc(OCCCc2c3n(c4c(-c5c(C)nn(C)c5C)c(Cl)ccc24)[C@H](C)CN(c2cn(C)c4ccc(-n5ccnn5)nc24)C3=O)cc(C)c1Cl [Example 659, (R)-7-Chloro-10-(3-(4-chloro-3,5-dimethylphenoxy)propyl)-4-methyl-2-(1-methyl-5-(1H-1,2,3-triazol-1-yl)-1H-pyrrolo[3,2-b]pyridin-3-yl)-6-(1,3,5-trimethyl-1H-pyrazol-4-yl)-3,4-dihydropyrazino[1,2-a]indol-1(2H)-one]	0.00096	–	0.93	–
COCCn1cc(C(=O)O)c2cc(OCCN(C)C)cc(N3C[C@@H](C)n4c(c(CCCOc5cc(C)c(Cl)c(C)c5)c5ccc(Cl)c(-c6c(C)nn(C)c6C)c54)C3=O)c21 [Example 671, (R)-7-(7-chloro-10-(3-(4-chloro-3,5-dimethylphenoxy)propyl)-4-methyl-1-oxo-6-(1,3,5-trimethyl-1H-pyrazol-4-yl)-3,4-dihydropyrazino[1,2-a]indol-2(1H)-yl)-5-(2-(dimethylamino)ethoxy)-1-(2-methoxyethyl)-1H-indole-3-carboxylic acid]	0.00032	–	0.89	–
Cc1cc(OCCCc2c3n(c4c(-c5c(C)ncnc5C)c(Cl)ccc24)[C@H](C)CN(c2cn(C)c4ncc(C(=O)O)cc24)C3=O)cc(C)c1Cl [Example 636, (R)-3-(7-chloro-10-(3-(4-chloro-3,5-dimethylphenoxy)propyl)-6-(4,6-dimethylpyrimidin-5-yl)-4-methyl-1-oxo-3,4-dihydropyrazino[1,2-a]indol-2(1H)-yl)-1-methyl-1H-pyrrolo[2,3-b]pyridine-5-carboxylic acid]	0.0005	–	0.98	–
Cc1cc(OCCCc2c3n(c4c(-c5c(C)nn(C)c5C)c(Cl)ccc24)[C@H](C)CN(c2cn(CC(=O)N(C)C)c4ccc(-c5ncn(C)n5)cc24)C3=O)cc(C)c1Cl [Example 560, (R)-2-(3-(7-Chloro-10-(3-(4-chloro-3,5-dimethylphenoxy)propyl)-4-methyl-1-oxo-6-(1,3,5-trimethyl-1H-pyrazol-4-yl)-3,4-dihydropyrazino[1,2-a]indol-2(1H)-yl)-5-(1-methyl-1H-1,2,4-triazol-3-yl)-1H-indol-1-yl)-N,N-dimethylacetamide]	0.00053	–	0.27	–
COc1ccc(N2C[C@@H](C)n3c(c(CCCOc4cc(C)c(Cl)c(C)c4)c4ccc(Cl)c(-c5c(C)nn(C)c5C)c43)C2=O)c2c1c(C(=O)O)cn2Cc1ccccn1 [Example 617, (R)-7-(7-chloro-10-(3-(4-chloro-3,5-dimethylphenoxy)propyl)-4-methyl-1-oxo-6-(1,3,5-trimethyl-1H-pyrazol-4-yl)-3,4-dihydropyrazino[1,2-a]indol-2(1H)-yl)-4-methoxy-1-(pyridin-2-ylmethyl)-1H-indole-3-carboxylic acid]	< 0.0002	–	0.44	–
Cc1cc(OCCCc2c3n(c4c(-c5c(C)nn(C)c5C)c(Cl)ccc24)[C@H](C)CN(c2cn(CC(=O)N(C)C)c4ccc(-c5ncccn5)cc24)C3=O)cc(C)c1Cl [Example 637, (R)-2-(3-(7-Chloro-10-(3-(4-chloro-3,5-dimethylphenoxy)propyl)-4-methyl-1-oxo-6-(1,3,5-trimethyl-1H-pyrazol-4-yl)-3,4-dihydropyrazino[1,2-a]indol-2(1H)-yl)-5-(pyrimidin-2-yl)-1H-indol-1-yl)-N,N-dimethylacetamide]	0.0013	–	0.53	–
Cc1cc(OCCCc2c3n(c4c(-c5c(C)nn(C)c5C)c(Cl)ccc24)[C@H](C)CN(c2cn(C)c4ccc(-n5cncn5)cc24)C3=O)cc(C)c1Cl [Example 681, (R)-7-Chloro-10-(3-(4-chloro-3,5-dimethylphenoxy)propyl)-4-methyl-2-(1-methyl-5-(1H-1,2,4-triazol-1-yl)-1H-indol-3-yl)-6-(1,3,5-trimethyl-1H-pyrazol-4-yl)-3,4-dihydropyrazino[1,2-a]indol-1(2H)-one]	0.0055	–	0.94	–
